Key:
[1] = 0.2% HF solution, pH 2.0, ~0.1 mol/l F; sound enamel; cited from earlier work
[2] = 0.15% HF at pH 2.58, 5 minutes at 37° C.; then 2% citric acid 15 minutes at 37° C.
From the text: A low vacuum scanning electron microscope, JEOL JSM 6610 LV, was used for studying surfaces.
SEM pictures were taken with 5000 times magnification (SEM×5000).
A human ex vivo tooth (premolar) was received from a dentist practice. The tooth was stored in Ringer solution and kept in refrigerator.
The effect of the HF treatment on HA surfaces was verified using an ex vivo human premolar tooth. The tooth had been split into two halves before the experiment (tooth 1:1 and tooth 1:2). The two tooth halves were rinsed with distilled water. One tooth half was placed in a 50 ml plastic bottle containing 2% citric acid and then allowed to incubate at 37° C. for 15 minutes under gentle agitation. The tooth was then rinsed with distilled water for a few minutes and then put on tissue paper to dry. […] The tooth half was rinsed with distilled water and then immersed in 2% citric acid and then allowed to incubate at 37° C. for 15 minutes under gentle agitation. The tooth was then rinsed with distilled water and left to dry on tissue paper for a few minutes.

SMILES: F [HF, hydrogen fluoride]
- duration of protective effect against citric acid attack [1]: at least 1 week
- SEM: protection of enamel from etching [2]: clearly protected from etching

From patent US11007128B2, “Composition for preventing or treating dental erosion” (MEDA OTC AB, priority 2014, dated 2021)
